# Like-named read-outs stand apart in the source and are kept apart here.
# Experiments:
# [1] = tested on: SDH-KO-HRAS cells (SDHB-deficient); assay: Cellular / differential toxicity assay (CellTiter-Glo, 3 days); type: cell-based, murine; conditions: for EC50: Mus musculus, 72 h
# Summary of the method: (§1)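 Isogenic SDHB-deficient (HRAS-transformed SDH-KO) and SDH-WT cells grown in DMEM-F12 with 1 mM glutamine and 3% FBS, plated with compound (10-point dilution from 10 uM to 0.0065 uM or lower) for 3 days at 37 °C, 5% CO2. Viability by CellTiter-Glo luminescence; EC50 calculated.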
# SDH-WT cells = assay: as above; type: cell-based, murine; conditions: for EC50: Mus musculus, 72 h
# Summary of the method: as §1
# [2] = tested on: KG1 (Acute Myelogenous Leukemia); assay: Toxicity assay with or without rotenone; type: cell-based; conditions: 72 hours
# Description: (§2) Toxicity assay: Cells were growing in 96 well plates in DMEM F12 with 17 mM glucose, 0.5 mM Sodium Pyruvate, 1 mM Glutamine and 3% FBS. The cells were treated with the indicated compounds (10 different concentrations) with or without 25 nM rotenone. Viability was determined after 72 hours of treatment using CellTiter Glo reagent (Promega). EC50 was calculated using Prism software.
# OV-90 (Ovarian cancer) = assay: Toxicity assay with or without rotenone; type: cell-based; conditions: Homo sapiens, 72 hours
# Description: as §2
# [3] = tested on: SDH-KO, Murine HRAS-transformed, SDHB-deficient cells; assay: Toxicity assay with or without rotenone; type: cell-based; conditions: Mus musculus, 72 hours
# Description: as §2
# [4] = tested on: SDH-WT, Murine HRAS-transformed cells; assay: Toxicity assay with or without rotenone; type: cell-based; conditions: Mus musculus, 72 hours
# Description: as §2
# [5] = tested on: THP1 (Acute Monocytic Leukemia); assay: Toxicity assay with or without rotenone; type: cell-based; conditions: Homo sapiens, THP-1, 72 hours
# Description: as §2
# [6] = tested on: 2-DeoxyGlucose phosphorylation in murine SDH-WT cells; assay: 2 DG phosphorylation assay; type: cell-based; conditions: Mus musculus, 0.25 h, 15 min, LC-MS
# Description: IC50 of compound 145 and GluT1 inhibitor […] in a 2 DG phosphorylation assay was done using murine SDH-WT cells. The cells were treated for 15 min with the indicated compound at different concentrations in the presence of 2 DG. 2 DG phosphorylation was determined by LC-MS analysis and the inhibition IC50 was determined by Prism software.
# [7] = tested on: m+3 lactate secretion (glycolysis) in SDH-KO cells; assay: Glycolysis inhibition (IC50 Lactate m+3); type: cell-based; conditions: 1 h, 25 mM 13C-glucose, one hour
# Description: (§3) Glycolysis Inhibition (IC50 Lactate m+3)
# (§4) Cell were plated in DMEM, 25 mM Glucose, 1 mM Pyruvate, 1 mM Glutamine and 10% Dialyzed serum in 96 well plates in triplicates. The day after the medium was replaced to fresh medium with 25 mM ^13C-glucose and treated with different concentrations of the compounds as indicated. One hour later the medium was collected and the level of m+3 lactate was determined by LC-MS. The IC50 of inhibition of m+3 lactate secretion into the medium was calculated with Prism.
# [8] = tested on: m+3 lactate secretion (glycolysis) in SDH-WT cells; assay: Glycolysis inhibition (IC50 Lactate m+3); type: cell-based; conditions: 1 h, 25 mM 13C-glucose, one hour
# Description: as §3, §4
# UOK269 (SDHB-def.) RCC = assay: Cell viability in SDH-deficient/proficient isogenic pairs; type: cell-based, Human
# Description: (§5) The cells were grown in DMEM F12 supplemented with 1 mM Glutamine+3% FBS were treated with different concentrations of the indicated compounds. Cell viability was determined 72 hours later by CellTiter Glue reagent (Promega), the luminescence was measured with ClarioStar reader (BMG) and the EC50s were calculated by Prism. Murine SDHB-WT/KO, HRAS transformed isogenic pair (FIG. 12A); UOK269, Human Tumor-derived SDHB-deficient RCC in their WT counterpart with re-expression of SDHB (FIG. 12B); and ACHN, RCC cells, and their SDHB-KO (SDHB CRISPRed out) isogenic cells (FIG. 12C).
# [9] = tested on: UOK269-WT (re-expression of SDHB); assay: as above; type: cell-based, Human
# Description: as §5
# [10] = tested on: ACHN SDHB −/− (SDHB CRISPRed out); assay: as above; type: cell-based
# Description: as §5
# ACHN WT, RCC cells = assay: as above; type: cell-based
# Description: as §5
# [11] = with 25 nM rotenone, read-out: EC50 (nM) with Rotenone
# [12] = without rotenone, read-out: EC50
# [13] = Homo sapiens, tumor-derived, 72 hours
# [14] = Homo sapiens, cancer cells, 72 hours
structure (smiles),measurement,setting,value
CC1(C)Cc2nc3sc4c(NCCc5ccc6[nH]cnc6c5)ncnc4c3cc2CO1 [Compound 145],Ratio BAY-876/COMP 145,[1]; Murine SDH-KO,0.8
same,EC50,"[1]; Murine SDH-KO, transformed, 72 hours, Example 8, read-out: EC50",0.0012 µM
same,EC50,"[1]; SDH-KO cells, 72 hours, Example 7, read-out: EC50 Tox",0.0018 µM
same,EC50,"[1]; toxicity, SDH-KO cells, 3 days, CellTiter-Glo, read-out: EC50 (uM) SDH-KO-HTAS-C17",< 1 µM
same,differential effect between SDH-WT and KO cells (EC50 Tox),"[1]; cell viability, Example 7",around 80 folds
same,Ratio BAY-876/COMP 145,SDH-WT cells; Murine SDH-WT,0.4
same,EC50,"SDH-WT cells; Murine SDH-WT, transformed, 72 hours, Example 8, read-out: EC50",0.34 µM
same,EC50,"SDH-WT cells; SDH-WT cells, 72 hours, Example 7, read-out: EC50 Tox",0.139 µM
same,EC50,"SDH-WT cells; toxicity, SDH-WT cells, 3 days, CellTiter-Glo, read-out: EC50 (uM) SDH-WT",< 1 µM
same,EC50,"[2]; KG1, with 25 nM rotenone, read-out: EC50 (nM) with Rotenone",16 nM
same,EC50,"[2]; KG1, without rotenone, read-out: EC50",3200 nM
same,EC50,"OV-90 (Ovarian cancer); OV-90, with 25 nM rotenone, read-out: EC50 (nM) with Rotenone",15 nM
same,EC50,"OV-90 (Ovarian cancer); OV-90, without rotenone, read-out: EC50",825 nM
same,EC50,[3]; [11],3 nM
same,EC50,[3]; [12],3 nM
same,EC50,[4]; [11],3 nM
same,EC50,[4]; [12],210 nM
same,EC50,"[5]; THP1, with 25 nM rotenone, read-out: EC50 (nM) with Rotenone",16 nM
same,EC50,"[5]; THP1, without rotenone, read-out: EC50",1100 nM
same,IC50,[6],9.7 nM
same,IC50,[7],6.1 nM
same,IC50,[8],1.7 nM
same,Ratio BAY-876/COMP 145,UOK269 (SDHB-def.) RCC,8.8
same,EC50,UOK269 (SDHB-def.) RCC; [13],1.7 nM
same,Ratio BAY-876/COMP 145,[9],2.9
same,EC50,[9]; [13],1830 nM
same,Ratio BAY-876/COMP 145,[10],30
same,EC50,[10]; [14],8.4 nM
same,Ratio BAY-876/COMP 145,"ACHN WT, RCC cells",1.7
same,EC50,"ACHN WT, RCC cells; [14]",13800 nM

# Reference: patent US20230084927A1, “GLUCOSE UPTAKE INHIBITORS AND USES THEREOF” (METABOMED LTD., priority 2019, published 2023)
